Results: patent publication US20160193206A1, “BET-PROTEIN-INHIBITING DIHYDROPYRIDOPYRAZINONES” (BAYER PHARMA AKTIENGESELLSCHAFT, priority 2012, published 2016)

Columns and labels:
[1] = molecular target: T1, BRD4 bromo domain 1 [BRD4(1)] (Homo sapiens, UniProt O60885); test: BRD4(1)/acetylated peptide H4 binding assay (TR-FRET); conditions: inhibition of interaction between His6-tagged BRD4(1) (amino acids 67-152) and acetylated histone H4 peptide
T1 construct: N-terminally His6-tagged BRD4(1) (amino acids 67-152); made in house; host or cells: E. coli
Text: (§1) Protein-Protein Interaction Assay: BRD4/Acetylated Peptide H4 Binding Assay
1. Assay Description for BRD4 Bromo Domain 1 [BRD4(1)]
To assess the BRD4(1) binding strength of the substances described in this application, the ability thereof to inhibit the interaction between BRD4(1) and acetylated histone H4 in a dose-dependent manner was quantified.
(§2) For this purpose, a time-resolved fluorescence resonance energy transfer (TR-FRET) assay was used, which measures the binding between N-terminally His6-tagged BRD4(1) (amino acids 67-152) and a synthetic acetylated histone H4 (Ac-H4) peptide with sequence GRGK(Ac)GGK(Ac)GLGK(Ac)GGAK(Ac)RHGSGSK-biotin. The recombinant BRD4(1) protein produced in-house according to Filippakopoulos et al., Cell, 2012, 149:214-231 was expressed in E. coli and purified by means of (Ni-NTA) affinity and (Sephadex G-75) size exclusion chromatography. The Ac-H4 peptide can be purchased, for example, from Biosyntan (Berlin, Germany).
(§3) In the assay, typically 11 different concentrations of each substance (0.1 nM, 0.33 nM, 1.1 nM, 3.8 nM, 13 nM, 44 nM, 0.15 μM, 0.51 μM, 1.7 μM, 5.9 μM and 20 μM) were analysed as duplicates on the same microtitre plate. For this purpose, 100-fold concentrated solutions in DMSO were prepared by serial dilutions (1:3.4) of a 2 mM stock solution into a clear, 384-well microtitre plate (Greiner Bio-One, Frickenhausen, Germany). From this, 50 nl were transferred into a black test plate (Greiner Bio-One, Frickenhausen, Germany). The test was started by the addition of 2 μl of a 2.5-fold concentrated BRD4(1) solution (final concentration typically 10 nM in the 5 μl of reaction volume) in aqueous assay buffer [50 mM HEPES pH 7.5, 50 mM sodium chloride (NaCl), 0.25 mM CHAPS and 0.05% serum albumin (BSA)] to the substances in the test plate. This was followed by a 10-minute incubation step at 22° C. for the pre-equilibration of putative complexes between BRD4(1) and the substances.
(§4) The mixture was then incubated in the dark at 22° C. for one hour and then at 4° C. for at least 3 hours and for no longer than overnight. The formation of BRD4(1)/Ac-H4 complexes was determined by the measurement of the resonance energy transfer from the streptavidin-Eu cryptate to the anti-6His-XL665 antibody present in the reaction. For this purpose, the fluorescence emission was measured at 620 nm and 665 nm after excitation at 330-350 nm in a TR-FRET measuring instrument, for example a Rubystar or Pherastar (both from BMG Lab Technologies, Offenburg, Germany) or a Viewlux (Perkin-Elmer). The ratio of the emissions at 665 nm and at 622 nm was taken as an indicator of the amount of BRD4(1)/Ac-H4 complexes formed.
(§5) The data (ratios) obtained were normalized, with 0% inhibition corresponding to the mean from the measurements for a set of controls (typically 32 data points) in which all the reagents were present. In these, in place of test substances, 50 nl of DMSO (100%) were used. Inhibition of 100% corresponded to the mean from the measurements for a set of controls (typically 32 data points) in which all the reagents except BRD4(1) were present. The IC50 was determined by regression analysis based on a 4-parameter equation (minimum, maximum, IC50, Hill; Y=max+(min−max)/(1+(X/IC50)Hill).

[2] = molecular target: T2, BRD4 bromo domain 2 [BRD4(2)] (Homo sapiens, UniProt O60885); test: BRD4(2)/acetylated peptide H4 binding assay (TR-FRET); conditions: inhibition of interaction between His6-tagged BRD4(2) (amino acids 357-445) and acetylated histone H4 peptide
T2 construct: N-terminally His6-tagged BRD4(2) (amino acids 357-445); made in house; host or cells: E. coli
Text: as §1
2. Assay Description for BRD4 Bromo Domain 2 [BRD4(2)]
To assess the BRD4(2) binding strength of the substances described in this application, the ability thereof to inhibit the interaction between BRD4(2) and acetylated histone H4 in a dose-dependent manner was quantified.
as §2, with “BRD4(2)” for “BRD4(1)”, “357-445)” for “67-152)”, “SGRGK(Ac)GGK(Ac)GLGK(Ac)GGAK(Ac)RHRKVLRDNGSGSK-biotin.” for “GRGK(Ac)GGK(Ac)GLGK(Ac)GGAK(Ac)RHGSGSK-biotin.”
as §3, with “concentrated BRD4(2)” for “concentrated BRD4(1)”, “typically 100” for “typically 10”, “chloride (NaCl); 50 mM potassium fluoride (KF);” for “chloride (NaCl),”, “between BRD4(2)” for “between BRD4(1)”
as §4, with “BRD4(2)/Ac-H4” for “BRD4(1)/Ac-H4”, “chelate” for “cryptate”
as §5, with “BRD4(2)” for “BRD4(1)”

Row | Compound | IC50 [1] [nM] | IC50 [2] [nM]
1 | CC(C)N1c2nc(Nc3ccc(C(=O)NC4CCN(C)CC4)cc3)ccc2N(C)C(=O)[C@H]1C [Example 98, 4-{[(3R)-1,3-Dimethyl-2-oxo-4-(propan-2-yl)-1,2,3,4-tetrahydropyrido[2,3-b]pyrazin-6-yl]amino}-N-(1-methylpiperidin-4-yl)benzamide] | 281 | 98
2 | C[C@@H]1C(=O)N(C)c2ccc(Nc3ccc(S(=O)(=O)NCCc4cccnc4)cc3)nc2N1C1CCOCC1 [Example 19, 4-{[(3R)-1,3-dimethyl-2-oxo-4-(tetrahydro-2H-pyran-4-yl)-1,2,3,4-tetrahydropyrido[2,3-b]pyrazin-6-yl]amino}-N-[2-(pyridin-3-yl)ethyl]benzene-sulphonamide] | 219 | 185
3 | COc1cc(S(=O)(=O)N2CCN(C)CC2)ccc1Nc1ccc2c(n1)N(C1CCOCC1)[C@H](C)C(=O)N2C [Example 112, (3R)-6-({2-Methoxy-4-[(4-methylpiperazin-1-yl)sulphonyl]phenyl}amino)-1,3-dimethyl-4-(tetrahydro-2H-pyran-4-yl)-3,4-dihydropyrido[2,3-b]pyrazin-2(1H)-one] | 106 | 86
4 | COCCN1c2nc(Nc3ccc(C(=O)NC4CCN(C)CC4)cc3)ccc2N(C)C(=O)C1C (centres unmarked) [Example 104, 4-{[4-(2-Methoxyethyl)-1,3-dimethyl-2-oxo-1,2,3,4-tetrahydropyrido[2,3-b]pyrazin-6-yl]amino}-N-(1-methylpiperidin-4-yl)benzamide] | 621 | 217
5 | COc1cc(S(=O)(=O)N[C@H]2CC[C@H](N3CCN(CC4CC4)CC3)CC2)ccc1Nc1ccc2c(n1)N(C1CCOCC1)[C@H](C)C(=O)N2C [Example 111, N-{trans-4-[4-(Cyclopropylmethyl)piperazin-1-yl]cyclohexyl}-4-{[(3R)-1,3-dimethyl-2-oxo-4-(tetrahydro-2H-pyran-4-yl)-1,2,3,4-tetrahydropyrido[2,3-b]pyrazin-6-yl]amino}-3-methoxybenzenesulphonamide] | 29 | 130
6 | COc1cc(C(=O)N[C@H]2CC[C@H](NC(=O)OC(C)(C)C)CC2)ccc1Nc1ccc2c(n1)N(C1CCOCC1)[C@H](C)C(=O)N2C [Example 59, tert-Butyl {trans-4-[(4-{[(3R)-1,3-dimethyl-2-oxo-4-(tetrahydro-2H-pyran-4-yl)-1,2,3,4-tetrahydropyrido[2,3-b]pyrazin-6-yl]amino}-3-methoxybenzoyl)amino]cyclohexyl}carbamate] | 533 | 323
7 | COc1cc(C(=O)NC2CCC(O)CC2)ccc1Nc1ccc2c(n1)N(C(C)C)[C@H](C)C(=O)N2C (stereo partly drawn) [Example 97, 4-{[(3R)-1,3-Dimethyl-2-oxo-4-(propan-2-yl)-1,2,3,4-tetrahydropyrido[2,3-b]pyrazin-6-yl]amino}-N-(4-hydroxycyclohexyl)-3-methoxybenzamide] | 261 | 117
8 | C[C@@H]1C(=O)N(C)c2ccc(Nc3ccc(S(=O)(=O)N(C)C)cc3)nc2N1Cc1ccccc1 [Example 94, 4-{[(3R)-4-Benzyl-1,3-dimethyl-2-oxo-1,2,3,4-tetrahydropyrido[2,3-b]pyrazin-6-yl]amino}-N,N-dimethylbenzenesulphonamide] | 156 | 111

Second part, the compound after the results:

Row | IC50 [1] [nM] | IC50 [2] [nM] | Compound
9 | 295 | 161 | COc1cc(C(=O)N2CCN(C(C)C)CC2)ccc1Nc1ccc2c(n1)N(C1CCCCCC1)[C@H](C)C(=O)N2C [Example 40, (3R)-4-Cycloheptyl-6-[(2-methoxy-4-{[4-(propan-2-yl)piperazin-1-yl]carbonyl}phenyl)amino]-1,3-dimethyl-3,4-dihydropyrido[2,3-b]pyrazin-2(1H)-one]
10 | 185 | 93 | C[C@@H]1C(=O)N(C)c2ccc(Nc3ccc(C(=O)NCCN4CCN(C)CC4)cc3)nc2N1C1CCCCCC1 [Example 89, 4-{[(3R)-4-Cycloheptyl-1,3-dimethyl-2-oxo-1,2,3,4-tetrahydropyrido[2,3-b]pyrazin-6-yl]amino}-N-{2-(4-methylpiperazin-1-yl)ethyl]benzamide]
11 | 317 | 90 | C[C@@H]1C(=O)N(C)c2ccc(Nc3ccc(C(=O)N4CC5(COC5)C4)cc3)nc2N1C1CCCCCC1 [Example 93, (3R)-4-Cycloheptyl-1,3-dimethyl-6-{[4-(2-oxa-6-azaspiro[3.3]hept-6-ylcarbonyl)phenyl]amino}-3,4-dihydropyrido[2,3-b]pyrazin-2(1H)-one]
12 | 589 | 126 | C[C@@H]1C(=O)N(C)c2ccc(Nc3ccc(S(=O)(=O)N(C)C)cc3)nc2N1C1CCCCCC1 [Example 95, 4-{[(3R)-4-Cycloheptyl-1,3-dimethyl-2-oxo-1,2,3,4-tetrahydropyrido[2,3-b]pyrazin-6-yl]amino}-N,N-dimethylbenzenesulphonamide]
13 | 241 | 108 | CC(C)N1CCN(C(=O)c2ccc(Nc3ccc4c(n3)N(C3CCCCC3)[C@H](C)C(=O)N4C)cc2)CC1 [Example 31, (3R)-4-Cyclohexyl-1,3-dimethyl-6-[(4-{[4-(propan-2-yl)piperazin-1-yl]carbonyl}phenyl)amino]-3,4-dihydropyrido[2,3-b]pyrazin-2(1H)-one]
